# How the values were obtained:
# NG108-15 cells = test: Uptake of mannosamine precursors and conversion to sialic acids (precursor pool, gangliosides, glycoproteins) in NG108-15 cells, HPLC; type: cell-based, mouse neuroblastoma/rat glioma hybrid
# Procedure: Cells were harvested using hypertonic Ca^2+ - and Mg^2+ -free phosphate-buffered saline containing 1 mM EDTA, collected by centrifugation, and homogenized in ice-cold water using a Potter-Elvehjem glass/Teflon homogenizer. Methanol (2.6 volumes) was added, the suspension mixed and brought to ambient temperature, then chloroform (1.3 volumes, based on the original homogenate) was added and the suspension mixed vigorously. The suspension was centrifuged 30 min at 2,000×g. After collecting the supernatant, the pellet (containing precipitated proteins) was resuspended in water or concentrated ammonium hydroxide and a portion was used for protein assay (BCA, Pierce, Rockford, Ill.). The supernatant was partitioned by adjusting the chloroform-methanol-water ratio to 4:8:5.6 by addition of water, mixing thoroughly, and centrifuging as above. The upper phase was collected and a portion was subjected to reverse phase chromatography, using Sep-Pak C18 cartridges (Waters, Milford, Mass.), to isolate gangliosides (Schnaar, Methods Enzymol. 230:371, 1994).
# To quantify and identify sialic acids, a portion of resolublized protein, organic/aqueous soluble pool, or reverse-phase purified gangliosides was evaporated to dryness in a 500-μl polypropylene tube and 20 μl of 0.1 M HCl/0.25 M NaCl was added. One Ampliwax bead (Perkin Elmer Corp, Foster City, Calif.) per reaction was added to block evaporation, and the sample hydrolyzed for 3 h at 80° C. Released sialic acids were analyzed by injecting an aliquot (1-10 μl) onto a Dionex high pressure liquid chromatography system (Dionex Corporation, Sunnyvale, Calif.) using a HPIC-AS6 column and a pulsed amperometric detector. Elution solutions were: A, 0.75 mM NaOH; B, 200 mM NaOH; and C, 400 mM sodium acetate in 50 mM NaOH. NeuAc and NeuPr were resolved by elution with 40% A, 50% B, 10% C for 15 min at 1 ml/min. NeuGc was resolved in separate injections using step gradient elution: 0-1.8 min, 18% A, 50% B, 32% C; 2-10 min, 40% B, 60% C. Sialic acids were identified by comparison of their elution time with those of standard NeuAc, NeuPr and NeuGc and were quantified in comparison to a standard curve of commercial NeuAc (for NeuAc and NeuPr) or NeuGc.
# To confirm that the quantified peaks represented sialic acids, 10 μl of acid hydrolysates were treated with 1 μl of 1 M sodium phosphate (pH 7.2) and 10 μl of 0.1 M NaOH. Neutralized samples were incubated at 37° C. for 2 h with or without 0.9 U of N-acetylneuraminic acid aldolase (Sigma), 32 μM NADH and 0.1 μg lactate dehydrogenase. Sialic acid content in the ganglioside and glycoprotein fractions is expressed per mg of total cell protein. Precursor pool sialic acid (sialic acid plus CMP-sialic acid) was calculated by subtracting the ganglioside value from the organic/aqueous pool value, both expressed per mg of cell protein.
# Sialic acid is biosynthesized from the precursor sugar N-acetylmannosamine (FIG. 2). In the present invention, sialic acids are converted on live neuronal cells from NeuAc, which is a key determinant for MAG binding, to NeuGc, which is non-permissive for MAG binding. A potential NeuGc precursor, N-glycolylmannosamine monoacetate (ManNGcMA, FIG. 1, R1 =H) was tested for its ability to generate altered sialic acids in neuronal and non-neuronal cells. N-propanoylmannosamine (ManNPr) and other N-acyl mannosamine derivatives have been used to modify glycoprotein associated sialic acids to the corresponding N-acylneuraminic acid. N-propanoyl-mannosamine (ManNPr), was used as a positive control. […] Cell pellets were fractioned into lipid associated, protein associated, and intracellular (lipid and cytoplasmic which may consist of oligosaccharide-bound, free, or CMP-activated sialic acid) sialic acids and hydrolyzed to release sialic acid. The hydrolyzed samples were then analyzed by HPLC to determine sialic acid content. […]
# in vitro = settings: ng108-15 cells
# Procedure: Cell growth rates were determined in control cultures (.box-solid.), in cultures treated with 0.08 mM (.circle-solid.), 0.25 mM (.smallcircle.), or 1 mM (.quadrature.) ManNGcPA, and in cultures treated with 0.25 mM (.tangle-solidup.) or 1 mM (Δ) glucose pentaacetate.
# NG108-15 cells were maintained in Dulbecco's modified Eagle's medium (high glucose formulation) containing 5% iron-enriched calf serum, 100 μM hypoxanthine, 16 μM thymidine, and 5 μM aminopterin. […] Both cell types were cultured at 37° C. in a humidified atmosphere of 90% air/10% CO2. For treatment with sialic acid precursors, mannosamine derivatives were diluted into the appropriate medium and filter sterilized. […] In experiments testing ManNGcPA, all cells (control and experimental) were grown in the presence of 0.5% (v/v) DMSO, the carrier for ManNGcPA.
# [1] = 1 mM, 48 h, listed as ManNGc-OAc
# [2] = 1 mM, longer incubation (up to 144 h)
compound,measurement,setting,value
"CC(=O)OCC(=O)N[C@@H]1C(OC(C)=O)O[C@H](COC(C)=O)[C@@H](OC(C)=O)[C@@H]1OC(C)=O (stereo partly shown) [ManNGcPA, N-glycolylmannosamine pentaacetate]",conversion of ganglioside sialic acids to the NeuGc form,"NG108-15 cells; 0.02 mM, 48 h",~50%
same,conversion to the NeuGc form relative to 5 mM ManNGcMA,"NG108-15 cells; 0.1 mM ManNGcPA vs 5 mM ManNGcMA, 48 h",≈ 2 fold
same,glycoprotein sialic acids as NeuGc,"NG108-15 cells; 0.1 mM, 48 h",19.8%
same,intracellular sialic acid in the form of NeuGc,"NG108-15 cells; 0.1 mM, 48 h",20.6%
same,total lipid associated sialic acid as NeuGc,"NG108-15 cells; 0.1 mM, 48 h",17%
same,"protein sialic acid, average over the experiment (mean±S.D.)",NG108-15 cells; 0.25 mM,3.8±1.2 nmol/mg protein
same,"total ganglioside sialic acid, average over the experiment (mean±S.D.)",NG108-15 cells; 0.25 mM,3.2±0.7 nmol/mg total cell protein
same,glycoconjugate sialic acid in the NeuGc form,"NG108-15 cells; 0.25 mM or 1 mM, 96 h",> 70%
same,reversal of the conversion on withdrawal of the precursor,"NG108-15 cells; 0.25 mM, 24 h of chase",partial reversal of the conversion
same,conversion of NeuAc to NeuGc in gangliosides,"NG108-15 cells; 0.25 mM, 48 h",> 70%
same,conversion of NeuAc to NeuGc in glycoproteins,"NG108-15 cells; 0.25 mM, 96 h, relative to >70% in gangliosides",a similar conversion in glycoproteins
same,conversion from NeuAc to NeuGc (precursor pool),"NG108-15 cells; 1 mM, 48 h",82%
same,intracellular sialic acid in the form of NeuGc,"NG108-15 cells; 1.0 mM, 48 h",76.6%
same,ganglioside (lipid associated) sialic acid as NeuGc,NG108-15 cells; [1],51.5%
same,glycoprotein (protein associated) sialic acid as NeuGc,NG108-15 cells; [1],47%
same,glycoconjugate sialic acid in the NeuGc form,"NG108-15 cells; 1 mM, 144 h",80%
same,ganglioside sialic acid as NeuGc,NG108-15 cells; [2],≈ 80%
same,glycoprotein sialic acid as NeuGc,NG108-15 cells; [2],60-70%
same,sialic acid precursor pool in the NeuGc form,"NG108-15 cells; 1 mM, within 24 h (remained high up to 144 h)",> 80%
same,sialic acid precursor pool size,"NG108-15 cells; 0.1 or 1.0 mM ManNGcPA, or 5 mM ManNGcMA, 48 h",none of these treatments significantly altered the sialic acid precursor pool size
same,change in lipid or protein associated sialic acid compared to DMSO treated control,"NG108-15 cells; 0.1 or 1.0 mM, 48 h","no significant decrease in cell viability, or change in lipid or protein associated sialic acid"
same,total ganglioside sialic acid level,"NG108-15 cells; 0.1 or 1.0 mM, 48 h",not significantly altered
same,total glycoprotein sialic acid level,"NG108-15 cells; 0.1 or 1.0 mM, 48 h",not significantly altered
same,increase in potency due to peracetylation,"NG108-15 cells; ManNGcPA vs ManNGcMA, 48 h",100 fold
same,"viability at 70 h, 1000 µM",in vitro,76%
